Assay results from patent publication US20090239840A1, “AMINO SUBSTITUTED DIARYL[a,d]CYCLOHEPTENE ANALOGS AS [sequence] AGONISTS AND METHODS OF TREATMENT OF NEUROPSYCHIATRIC DISORDERS” (ACADIA PHARMACEUTICALS, INC., priority 2003, published 2009).

Tests used:
muscarinic M2 receptor = biological target: T1, muscarinic M2 receptor (Homo sapiens, UniProt P08172); assay: R-SAT functional screen, M2; assay type: cell-based; conditions: R-SAT; for Emax: read-out: M2 eff (efficacy); for EC50: read-out: M2 pEC50 (converted)
T1 construct: expressed in transfected cells
T1 sequence (P08172 1-466): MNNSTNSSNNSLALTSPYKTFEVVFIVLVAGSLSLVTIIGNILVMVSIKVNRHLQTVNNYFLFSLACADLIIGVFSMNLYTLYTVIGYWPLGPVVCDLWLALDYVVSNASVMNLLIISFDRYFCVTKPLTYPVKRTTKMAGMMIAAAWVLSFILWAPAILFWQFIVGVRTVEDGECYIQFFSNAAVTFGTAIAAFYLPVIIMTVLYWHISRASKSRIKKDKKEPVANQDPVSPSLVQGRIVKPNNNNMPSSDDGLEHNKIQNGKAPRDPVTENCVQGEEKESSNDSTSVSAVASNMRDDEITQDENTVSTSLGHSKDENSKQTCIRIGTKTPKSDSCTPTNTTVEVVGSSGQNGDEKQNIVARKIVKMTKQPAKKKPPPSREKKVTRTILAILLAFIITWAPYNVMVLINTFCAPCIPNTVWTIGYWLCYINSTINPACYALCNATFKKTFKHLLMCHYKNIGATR
Procedure, shortened: (§1)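 Receptor Selection and Amplification Technology (R-SAT) functional cell assay at M1, M2, M3 receptors. Values reported as efficacy (eff) and potency as pEC50.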

5-HT2A receptor = 5-HT2A receptor (Homo sapiens, UniProt P28223); assay: Receptor profile, 5-HT2A inverse agonism; assay type: cell-based; conditions: negative log of the inhibitory IC50 (inverse agonism); read-out: 5-HT2A pIEC50 (converted)
[1] = system: hyperactivity induced by MK-801; assay: MK-801 induced hyperactivity mouse model; assay type: in vivo; conditions: mice, salts of the compounds
Experimental: (§2) Five of the compounds listed in Table 2 were tested in an in vivo assay predictive of antipsychotic activity. Salts of these compounds where administered to mice having hyperactivity induced by amphetamine or MK-801 administration. The compounds were administered both subcutaneously (sc) and orally (po).

[2] = system: hyperactivity induced by amphetamine; assay: Amphetamine induced hyperactivity mouse model; assay type: in vivo; conditions: mice, salts of the compounds
Experimental: as §2

novel object recognition = assay: Novel object recognition (NOR) assay; assay type: in vivo; conditions: mice; for NOR - 60 minutes post training / NOR - 120 minutes post training: dose approx. ID75 in MK-801 hyperactivity assay
Experimental: Salts of the compounds were administered to mice at one hour post-training (a time-point at which animals normally behaviorally discriminate between novel and familiar objects) and two hours post-training (a time-point at which these animals normally no longer discriminate between objects). Doses were selected to correspond to the approximate ID75 value in the MK-801 hyperactivity assay.

Ames mutagenesis assay = assay type: cell-based
hERG = hERG (Homo sapiens, UniProt Q12809); assay: hERG assay
CYP 3A4 = CYP 3A4 (Homo sapiens, UniProt P08684); assay: biochemical
Experimental: The compounds listed in Table 4 were profiled in a panel of in vitro assays for assessment of cardiovascular (hERG), drug-drug interaction (CYP inhibition), and mutagenic (Ames) liability. Microsomal stability was also determined by measuring both rat and human microsomal clearance.

CYP 2C9 = CYP 2C9 (Homo sapiens, UniProt P11712); assay: CYP inhibition, 2C9; assay type: in vitro ADME
CYP 1A2 = biological target: T2, CYP 1A2 (Homo sapiens, UniProt P05177); assay: CYP inhibition, 1A2; assay type: in vitro ADME
T2 sequence (P05177 1-516): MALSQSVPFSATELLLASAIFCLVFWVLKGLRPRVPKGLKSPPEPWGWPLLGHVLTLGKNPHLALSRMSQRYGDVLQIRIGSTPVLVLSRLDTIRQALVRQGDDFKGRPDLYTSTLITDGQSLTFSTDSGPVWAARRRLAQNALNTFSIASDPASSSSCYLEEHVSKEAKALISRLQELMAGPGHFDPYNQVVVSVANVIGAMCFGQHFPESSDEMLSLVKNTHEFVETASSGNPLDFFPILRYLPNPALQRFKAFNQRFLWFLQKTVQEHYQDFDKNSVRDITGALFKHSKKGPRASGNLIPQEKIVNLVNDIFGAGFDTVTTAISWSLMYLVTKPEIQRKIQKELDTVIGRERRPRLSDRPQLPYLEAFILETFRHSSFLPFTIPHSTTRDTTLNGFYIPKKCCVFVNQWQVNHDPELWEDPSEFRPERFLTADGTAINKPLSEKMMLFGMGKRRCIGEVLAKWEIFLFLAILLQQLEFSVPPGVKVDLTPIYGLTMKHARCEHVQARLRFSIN

CYP 2C19 = CYP 2C19 (Homo sapiens, UniProt P33261); assay: CYP inhibition, 2C19; assay type: in vitro ADME
CYP 2D6 = CYP 2D6 (Homo sapiens, UniProt P10635); assay: CYP inhibition, 2D6; assay type: in vitro ADME
Rat microsomal clearance = assay type: in vitro ADME; conditions: rat microsomes
[3] = Human microsomal clearance; assay type: in vitro ADME; conditions: human microsomes
M1 receptor = biological target: T3, M1 receptor (Homo sapiens, UniProt P11229); assay: Receptor profile, M1 agonist activity; conditions: for Emax: read-out: M1 intrinsic activity %
T3 sequence (P11229 1-460): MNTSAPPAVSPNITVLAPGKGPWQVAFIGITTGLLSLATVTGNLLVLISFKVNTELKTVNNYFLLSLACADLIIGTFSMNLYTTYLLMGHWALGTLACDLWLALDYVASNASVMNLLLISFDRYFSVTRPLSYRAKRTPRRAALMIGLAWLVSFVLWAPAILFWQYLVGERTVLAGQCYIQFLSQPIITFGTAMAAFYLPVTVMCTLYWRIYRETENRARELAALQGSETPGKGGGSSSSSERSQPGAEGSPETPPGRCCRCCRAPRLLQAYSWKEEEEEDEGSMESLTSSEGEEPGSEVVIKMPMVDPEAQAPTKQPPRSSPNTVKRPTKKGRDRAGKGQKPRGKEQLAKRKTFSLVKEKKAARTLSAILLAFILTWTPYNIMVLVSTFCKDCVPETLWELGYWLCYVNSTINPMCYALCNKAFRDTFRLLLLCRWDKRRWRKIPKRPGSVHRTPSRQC
Description: (§3) Intrinsic activity was normalized to carbachol (M1) or pergolide (D2). For those ligands devoid of agonist activity, the values shown are pKi determined using [3H]raclopride.

D2 receptor = D2 receptor (Homo sapiens, UniProt P14416); assay: Receptor profile, D2 agonist activity; conditions: for D2 intrinsic activity, in words: devoid of agonist activity
Description: as §3

muscarinic M1 receptor = biological target: T4, muscarinic M1 receptor (Homo sapiens, UniProt P11229); assay: R-SAT functional screen, M1; assay type: cell-based; conditions: R-SAT
T4 construct: expressed in transfected cells
T4 sequence (P11229 1-460): T3 sequence (P11229 1-460)
Procedure, shortened: as §1

muscarinic M3 receptor = biological target: T5, muscarinic M3 receptor (Homo sapiens, UniProt P20309); assay: R-SAT functional screen, M3; assay type: cell-based
T5 construct: expressed in transfected cells
Description: The term “modulate” refers to the ability of a compound disclosed herein to alter the function of a muscarinic receptor. A modulator may activate the activity of a muscarinic receptor, may activate or inhibit the activity of a muscarinic receptor depending on the concentration of the compound exposed to the muscarinic receptor, or may inhibit the activity of a muscarinic receptor. The term “modulate” also refers to altering the function of a muscarinic receptor by increasing or decreasing the probability that a complex forms between a muscarinic receptor and a natural binding partner. A modulator may increase the probability that such a complex forms between the muscarinic receptor and the natural binding partner, may increase or decrease the probability that a complex forms between the muscarinic receptor and the natural binding partner depending on the concentration of the compound exposed to the muscarinic receptor, and or may decrease the probability that a complex forms between the muscarinic receptor and the natural binding partner. In some embodiments, modulation of the muscarinic receptor may be assessed using Receptor Selection and Amplification Technology (R-SAT) as described in U.S. Pat. No. 5,707,798, the disclosure of which is incorporated herein by reference in its entirety.
Several compounds disclosed herein were evaluated for activity at muscarinic receptors using Receptor Selection and Amplification Technology (R-SAT) as described in U.S. Pat. No. 5,707,798, the disclosure of which is incorporated herein by reference in its entirety. The efficacy (eff) and potency (expressed as pEC50) of these compounds are presented in Table 1 at M1, M2, and M3 receptors.

[4] = to 10 μM (cytotoxicity precluded evaluation of all concentrations)

CYP 2C9, sequence (P11712 whole entry): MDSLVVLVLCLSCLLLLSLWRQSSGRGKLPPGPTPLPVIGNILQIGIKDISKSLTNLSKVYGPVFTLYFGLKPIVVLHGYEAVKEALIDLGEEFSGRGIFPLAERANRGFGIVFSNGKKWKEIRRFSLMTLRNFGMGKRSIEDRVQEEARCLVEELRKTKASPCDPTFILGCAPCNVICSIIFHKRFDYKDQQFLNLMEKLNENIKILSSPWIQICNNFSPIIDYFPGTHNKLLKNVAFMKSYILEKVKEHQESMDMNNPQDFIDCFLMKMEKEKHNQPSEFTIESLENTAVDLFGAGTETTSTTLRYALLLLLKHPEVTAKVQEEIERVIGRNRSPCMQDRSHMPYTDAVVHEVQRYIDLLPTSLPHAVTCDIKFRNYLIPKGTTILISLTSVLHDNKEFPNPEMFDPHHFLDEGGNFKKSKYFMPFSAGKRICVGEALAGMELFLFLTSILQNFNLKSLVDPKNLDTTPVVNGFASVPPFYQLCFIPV
5-HT2A receptor, sequence (P28223 whole entry): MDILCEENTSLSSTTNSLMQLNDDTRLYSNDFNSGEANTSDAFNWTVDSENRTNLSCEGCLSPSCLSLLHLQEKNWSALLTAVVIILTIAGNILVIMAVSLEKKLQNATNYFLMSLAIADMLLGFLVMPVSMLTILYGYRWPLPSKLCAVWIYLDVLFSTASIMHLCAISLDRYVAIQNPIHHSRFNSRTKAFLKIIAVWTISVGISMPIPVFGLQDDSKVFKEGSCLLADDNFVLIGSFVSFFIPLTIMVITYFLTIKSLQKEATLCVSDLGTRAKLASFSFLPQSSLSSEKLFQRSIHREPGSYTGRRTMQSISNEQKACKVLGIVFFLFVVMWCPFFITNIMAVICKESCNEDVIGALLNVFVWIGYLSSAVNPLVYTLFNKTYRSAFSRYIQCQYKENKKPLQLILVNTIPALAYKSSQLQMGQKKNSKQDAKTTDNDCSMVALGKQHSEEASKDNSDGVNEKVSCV
CYP 2C19, sequence (P33261 whole entry): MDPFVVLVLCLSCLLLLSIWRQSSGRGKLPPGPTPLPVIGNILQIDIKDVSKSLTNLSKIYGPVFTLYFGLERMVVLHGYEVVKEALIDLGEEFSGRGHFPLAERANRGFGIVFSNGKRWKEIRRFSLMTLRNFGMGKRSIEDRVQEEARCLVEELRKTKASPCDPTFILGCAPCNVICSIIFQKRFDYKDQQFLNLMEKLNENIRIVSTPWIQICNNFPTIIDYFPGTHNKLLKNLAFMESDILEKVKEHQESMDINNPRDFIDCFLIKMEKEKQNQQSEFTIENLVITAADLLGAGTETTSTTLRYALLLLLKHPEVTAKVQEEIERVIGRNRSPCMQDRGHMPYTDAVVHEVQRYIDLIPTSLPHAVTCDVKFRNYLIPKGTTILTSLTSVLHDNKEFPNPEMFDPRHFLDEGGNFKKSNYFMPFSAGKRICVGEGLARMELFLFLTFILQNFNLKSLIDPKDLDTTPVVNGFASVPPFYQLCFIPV
CYP 2D6, sequence (P10635 whole entry): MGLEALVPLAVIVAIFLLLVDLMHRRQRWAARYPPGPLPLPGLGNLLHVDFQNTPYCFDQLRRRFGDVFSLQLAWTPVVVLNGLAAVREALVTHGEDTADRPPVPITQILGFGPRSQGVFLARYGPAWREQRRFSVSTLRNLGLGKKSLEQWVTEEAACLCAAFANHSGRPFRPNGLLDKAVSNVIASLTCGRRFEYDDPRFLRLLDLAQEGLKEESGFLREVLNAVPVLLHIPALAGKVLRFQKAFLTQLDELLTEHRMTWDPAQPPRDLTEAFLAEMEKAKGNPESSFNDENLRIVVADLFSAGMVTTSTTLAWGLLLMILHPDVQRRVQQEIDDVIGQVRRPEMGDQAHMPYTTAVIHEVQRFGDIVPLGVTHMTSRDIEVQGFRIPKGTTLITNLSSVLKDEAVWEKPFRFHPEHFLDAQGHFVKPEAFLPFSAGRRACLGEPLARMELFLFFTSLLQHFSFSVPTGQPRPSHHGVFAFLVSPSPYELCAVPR
D2 receptor, sequence (P14416 whole entry): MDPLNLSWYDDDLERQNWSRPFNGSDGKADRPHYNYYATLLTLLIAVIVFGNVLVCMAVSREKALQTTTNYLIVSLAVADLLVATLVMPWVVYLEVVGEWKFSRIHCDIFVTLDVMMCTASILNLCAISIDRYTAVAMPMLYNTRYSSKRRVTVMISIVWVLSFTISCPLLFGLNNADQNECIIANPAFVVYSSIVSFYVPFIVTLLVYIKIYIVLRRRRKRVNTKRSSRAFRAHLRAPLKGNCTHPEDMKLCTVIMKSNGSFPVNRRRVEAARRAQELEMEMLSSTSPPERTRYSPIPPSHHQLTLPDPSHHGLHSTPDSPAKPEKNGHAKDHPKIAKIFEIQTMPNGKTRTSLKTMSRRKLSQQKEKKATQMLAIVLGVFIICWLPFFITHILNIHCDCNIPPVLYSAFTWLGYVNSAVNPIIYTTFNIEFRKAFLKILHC
hERG, sequence (Q12809 whole entry): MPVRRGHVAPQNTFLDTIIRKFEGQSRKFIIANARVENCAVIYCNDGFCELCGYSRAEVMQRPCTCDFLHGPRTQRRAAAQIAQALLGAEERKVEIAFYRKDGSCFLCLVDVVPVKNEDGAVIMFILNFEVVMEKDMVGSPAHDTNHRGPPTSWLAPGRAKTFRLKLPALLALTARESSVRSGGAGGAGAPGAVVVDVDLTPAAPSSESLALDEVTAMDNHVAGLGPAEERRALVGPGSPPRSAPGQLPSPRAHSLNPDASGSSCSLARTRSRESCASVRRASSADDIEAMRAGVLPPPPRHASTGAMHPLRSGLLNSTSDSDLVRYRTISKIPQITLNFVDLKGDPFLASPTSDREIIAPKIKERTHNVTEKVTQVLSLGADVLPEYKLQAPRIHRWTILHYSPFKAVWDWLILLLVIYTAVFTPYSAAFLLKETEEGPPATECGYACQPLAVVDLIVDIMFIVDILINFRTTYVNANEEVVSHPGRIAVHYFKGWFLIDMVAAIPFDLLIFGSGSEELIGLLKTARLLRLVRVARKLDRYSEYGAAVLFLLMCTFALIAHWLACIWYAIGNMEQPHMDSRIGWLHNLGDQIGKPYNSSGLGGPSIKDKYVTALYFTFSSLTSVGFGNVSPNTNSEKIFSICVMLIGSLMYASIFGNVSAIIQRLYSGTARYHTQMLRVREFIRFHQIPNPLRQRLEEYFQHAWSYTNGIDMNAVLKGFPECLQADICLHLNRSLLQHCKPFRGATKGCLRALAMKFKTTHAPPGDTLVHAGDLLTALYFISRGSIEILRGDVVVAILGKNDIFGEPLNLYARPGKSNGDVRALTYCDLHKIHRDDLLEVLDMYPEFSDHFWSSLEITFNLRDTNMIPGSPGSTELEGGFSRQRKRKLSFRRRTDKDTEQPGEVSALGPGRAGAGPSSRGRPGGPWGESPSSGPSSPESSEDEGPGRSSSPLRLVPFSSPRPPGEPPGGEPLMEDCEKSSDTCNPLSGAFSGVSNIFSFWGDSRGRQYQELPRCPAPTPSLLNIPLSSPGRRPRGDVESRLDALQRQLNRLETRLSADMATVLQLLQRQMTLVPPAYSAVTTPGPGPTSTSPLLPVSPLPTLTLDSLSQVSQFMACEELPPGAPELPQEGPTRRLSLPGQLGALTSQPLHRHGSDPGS
CYP 3A4, sequence (P08684 whole entry): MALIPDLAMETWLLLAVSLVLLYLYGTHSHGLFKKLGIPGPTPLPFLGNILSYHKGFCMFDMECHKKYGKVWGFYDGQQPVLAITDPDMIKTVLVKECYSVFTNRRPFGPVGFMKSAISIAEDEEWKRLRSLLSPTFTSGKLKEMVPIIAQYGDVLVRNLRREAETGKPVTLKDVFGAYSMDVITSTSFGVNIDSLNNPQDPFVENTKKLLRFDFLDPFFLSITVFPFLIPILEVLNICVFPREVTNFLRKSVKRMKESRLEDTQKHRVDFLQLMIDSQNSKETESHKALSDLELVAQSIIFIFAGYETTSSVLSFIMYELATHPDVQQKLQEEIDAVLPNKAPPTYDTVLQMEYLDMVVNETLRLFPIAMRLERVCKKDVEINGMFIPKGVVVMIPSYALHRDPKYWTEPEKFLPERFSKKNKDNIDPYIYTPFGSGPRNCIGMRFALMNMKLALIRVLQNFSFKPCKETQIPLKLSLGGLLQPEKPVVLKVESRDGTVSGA
T5 sequence (P20309 whole entry): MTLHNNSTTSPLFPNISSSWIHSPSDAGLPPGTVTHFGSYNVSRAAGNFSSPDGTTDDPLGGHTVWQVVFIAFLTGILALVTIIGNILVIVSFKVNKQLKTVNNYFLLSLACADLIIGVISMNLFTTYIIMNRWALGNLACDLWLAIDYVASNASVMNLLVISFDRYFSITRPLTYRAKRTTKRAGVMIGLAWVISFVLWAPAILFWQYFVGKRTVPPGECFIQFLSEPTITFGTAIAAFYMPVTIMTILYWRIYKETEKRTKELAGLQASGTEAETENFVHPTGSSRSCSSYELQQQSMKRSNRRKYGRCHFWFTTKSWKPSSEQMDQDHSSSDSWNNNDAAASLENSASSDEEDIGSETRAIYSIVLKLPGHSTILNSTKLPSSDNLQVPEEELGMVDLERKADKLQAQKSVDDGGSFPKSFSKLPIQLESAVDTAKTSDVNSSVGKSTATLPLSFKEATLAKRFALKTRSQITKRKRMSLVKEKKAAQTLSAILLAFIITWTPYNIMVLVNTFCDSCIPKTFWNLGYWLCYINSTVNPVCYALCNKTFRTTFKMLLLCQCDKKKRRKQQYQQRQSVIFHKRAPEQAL

SMILES | Emax (muscarinic M2 receptor) [%] | EC50 (muscarinic M2 receptor) [nM] | IC50 (5-HT2A receptor) [nM] | MK-801 model (ID50 mg/kg po) [1] [mg/kg] | MK-801 model (ID50 mg/kg sc) [1] [mg/kg] | Amphetamine model (ID50 mg/kg po) [2] [mg/kg] | Amphetamine model (ID50 mg/kg sc) [2] [mg/kg] | NOR Interpretation (novel object recognition) | NOR - 60 minutes post training (novel object recognition) | NOR - 120 minutes post training (novel object recognition) | IC50 (hERG) [nM] | IC50 (CYP 3A4) [nM] | IC50 (CYP 2C9) [nM] | IC50 (CYP 1A2) [nM] | IC50 (CYP 2C19) [nM] | IC50 (CYP 2D6) [nM] | microsomal CLint (Rat microsomal clearance) [µL/min/mg] | microsomal CLint [3] [µL/min/mg] | EC50 (M1 receptor) [nM] | Emax (M1 receptor) [%] | also measured
Cc1cccc2c1Oc1ccc(Cl)cc1N=C2N1CCNCC1 [8-Chloro-4-methyl-11-(piperazin-1-yl)-dibenzo[b,f][1,4]oxazepine] | 71 | 631 | 31.6 | 1.9 | 0.5 | >10 | 3.4 | procognitive | retained | retained | 2000 | 1800 | > 10000 | 1800 | > 10000 | > 10000 | 27 | 16 | 200 | 71 | Ames (Ames mutagenesis assay; to 5 μM (cytotoxicity precluded evaluation of all concentrations)): Neg.; D2 intrinsic activity, in words (D2 receptor): antagonist
CN1c2ccc(Cl)cc2N=C(N2CCNCC2)c2ccccc21 [8-Chloro-5-methyl-11-(piperazin-1-yl)-5H-dibenzo[b,e][1,4]diazepine] | 138 | 1260 | > 10000 |  | 1.5 | >10 | 6.0 | no effect | retained | not retained | 1300 | 400 | > 10000 | > 10000 | > 10000 | > 10000 | 1090 | 23 | 79.4 | 65 | Emax (muscarinic M1 receptor; read-out: M1 eff (efficacy)): 65%; EC50 (muscarinic M1 receptor; read-out: M1 pEC50 (converted)): 79.4 nM; M3 eff (efficacy) (muscarinic M3 receptor): 14; Ames (Ames mutagenesis assay; [4]): Neg.; EC50 (D2 receptor): 15.8 nM; Emax (D2 receptor; read-out: D2 intrinsic activity %): 29%
Cc1cccc2c1Oc1ccc(F)cc1N=C2N1CCNCC1 [8-Fluoro-4-methyl-11-(piperazin-1-yl)-dibenzo[b,f][1,4]oxazepine] | 50 | 1580 | 126 | 0.6 | 1.4 | 2.8 | 3.3 | procognitive | retained | retained | 2300 | ~1500 | > 25000 | 1000 | > 25000 | > 25000 | 247 | 13 | 126 | 56 | Ames (Ames mutagenesis assay; [4]): Neg.; D2 intrinsic activity, in words (D2 receptor): antagonist
